Source: US20090312361A1, “NOVEL PHARMACEUTICAL COMPOSITIONS FOR TREATING ACQUIRED CHRONIC PAIN AND ASSOCIATED DYSPHORIA” (priority 2004, published 2009)

Tests used:
[1] = cited from earlier work; for accumulation: during multiple dose treatment with tramadol
μ-opiate receptors = μ-opiate receptors (Homo sapiens, UniProt P35372); conditions: cited from earlier work
pain = conditions: cited from earlier work
child = conditions: 4 mg/kg of tramadol to a child; cited from earlier work
[2] = tested on: neurogenic pain in the distal lower limbs, feet and digits; lower back pain; assay: Treatment of patient with severe back pain (Patient 1, case report); conditions: Patient 1, oral tramadol at doses up to 500 mg per day as needed
[3] = tested on: neuropathic pain (secondary peripheral distal neuropathy of both feet and legs); assay: Treatment of patient suffering from diabetic neuropathy (Patient 2, case report); type: in vivo, human
Description: Patient 2 was a person with a history of untreated diabetes. Secondary peripheral distal neuropathy of both feet and legs was among the patients' clinical complaints. […] The patient gradually self escalated the dosage of aspirin to 10 to 12×325 mg tablets per day. The patient then presented after self treatment for several weeks at the emergency room complaining of gastric pain and blood in the vomitus. […] The patient was stabilized through dietary intervention with antacids and released after several days.

[4] = cited from earlier work

μ-opiate receptors, sequence (P35372 whole entry): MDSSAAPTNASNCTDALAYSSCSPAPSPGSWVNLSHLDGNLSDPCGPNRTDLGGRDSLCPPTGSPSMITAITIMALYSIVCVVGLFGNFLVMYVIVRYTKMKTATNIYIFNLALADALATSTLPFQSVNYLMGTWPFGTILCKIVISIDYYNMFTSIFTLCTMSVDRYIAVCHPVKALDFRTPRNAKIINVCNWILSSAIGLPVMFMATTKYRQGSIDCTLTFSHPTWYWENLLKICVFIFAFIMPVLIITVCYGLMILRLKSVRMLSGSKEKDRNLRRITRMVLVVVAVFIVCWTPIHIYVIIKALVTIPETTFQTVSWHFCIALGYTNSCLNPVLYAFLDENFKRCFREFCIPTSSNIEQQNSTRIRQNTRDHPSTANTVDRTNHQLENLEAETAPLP

For `COc1cccc(C2(O)CCCCC2CN(C)C)c1` (racemic) [tramadol, (+/−)-trans (RR,SS)-2-[(di-methylamino)methyl]-1-(3-methoxyphenyl)cyclohexanol], the “time to peak serum concentrations” value ([1]; after oral administration) is given as at most 2 h, the accumulation [1] is given as “approximately 2 fold” and the “affinity for μ-opiate receptors, fold less than codeine” value (μ-opiate receptors; relative to codeine) is given as 10 fold. For the same molecule, the “affinity for μ-opiate receptors, fold less than d-propoxyphene” value (μ-opiate receptors; relative to d-propoxyphene) was 100 fold, the “affinity for μ-opiate receptors compared with dextromethorphan” value (μ-opiate receptors; relative to dextromethorphan) was “equivalent to dextromethorphan” and the “affinity for μ-opiate receptors, fold less than morphine” value (μ-opiate receptors; relative to morphine) was 6.000 fold. The “duration of the analgesic effect” value (pain; after a single oral dose of tramadol 100 mg) was “about 6 hours”, the “adverse effect after inadvertent administration” value (child) was “seizure activity” and the reported pain range [2] was “tolerable”. The side effects [2] was “no significant side effects”.
For `CN(C)C[C@H]1CCCC[C@]1(O)c1cccc(O)c1` [M1 derivative, O-desmethyltramadol], the accumulation [1] is listed as “approximately 2 fold” and the “analgesic potency relative to the parent drug” value (pain; relative to tramadol) is listed as “at least twice the analgesic potency of the parent drug”.
For `CC(=O)Oc1ccccc1C(=O)O` [aspirin, acetylsalicylic acid], the “diagnosis after self treatment” value ([3]; Patient 2, 10 to 12×325 mg tablets per day for several weeks) was “gastro-esophageal erosion and hemorrhage” and the “control of neuropathic pain” value ([3]; Patient 2, treatment with aspirin and other NSAIDs) was “only marginally effective”.
In the case of `Cn1c(=O)c2c(ncn2C)n(C)c1=O` [caffeine, 3,7-dihydro-1,3,7-trimethyl-1H-purine-2,6-dione], the “time to maximal plasma concentrations” value ([4]; after oral, rectal or parenteral administration) is given as at most 1 h and the half-life in plasma ([4]; in vivo) is given as 3 to 7 h.
